Data published in patent publication US10570131B2, “Heterocyclic compounds and their use in preventing or treating bacterial infections” (MUTABILIS, priority 2015, dated 2020).
Where a name gives a salt, the structure may show the parent alone.

Columns and labels:
Type in all cases: cell-based
C. murliniae 210102 [1] = experiment: MIC of compounds alone, broth microdilution; conditions: strain 210102 (VIM-4); read-out: MIC compounds of the invention alone
Summary of the method: (§1)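 Compounds tested alone or with ceftazidime by broth microdilution in cation-adjusted Mueller-Hinton broth, inoculum 5×10^5 cfu/mL from log-phase cultures. Plates incubated 16-20 h at 35° C in ambient air; MIC taken as lowest concentration preventing visible growth.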

E. cloacae 260508 = experiment: MIC of compounds alone, broth microdilution; conditions: Enterobacter cloacae, 260508, read-out: MIC compounds of the invention alone
Summary of the method: as §1

E. cloacae UFR38 [2] = experiment: MIC of compounds alone, broth microdilution; conditions: Enterobacter cloacae; strain UFR38 (CTX-M-15, NDM-1); read-out: MIC compounds of the invention alone
Summary of the method: as §1

E. cloacae UFR70 = experiment: MIC of compounds alone, broth microdilution; conditions: Enterobacter cloacae, UFR70, read-out: MIC compounds of the invention alone
Summary of the method: as §1

E. cloacae UFR85 = experiment: MIC of compounds alone, broth microdilution; conditions: Enterobacter cloacae, UFR85, read-out: MIC compounds of the invention alone
Summary of the method: as §1

E. coli UFR18 = experiment: MIC of compounds alone, broth microdilution; conditions: Escherichia coli; strain UFR18 (CTX-M-15, OXA-204); read-out: MIC compounds of the invention alone
Summary of the method: as §1

E. coli UFR32 = experiment: MIC of compounds alone, broth microdilution; conditions: Escherichia coli, UFR32, read-out: MIC compounds of the invention alone
Summary of the method: as §1

E. coli UFR52 [3] = experiment: MIC of compounds alone, broth microdilution; conditions: Escherichia coli, UFR52, read-out: MIC compounds of the invention alone
Summary of the method: as §1

E. coli UFR61O = experiment: MIC of compounds alone, broth microdilution; conditions: Escherichia coli, UFR61O, read-out: MIC compounds of the invention alone
Summary of the method: as §1

E. coli UFR74 = experiment: MIC of compounds alone, broth microdilution; conditions: Escherichia coli, UFR74, read-out: MIC compounds of the invention alone
Summary of the method: as §1

K. oxytoca UFR21 = experiment: MIC of compounds alone, broth microdilution; conditions: Klebsiella oxytoca, UFR21, read-out: MIC compounds of the invention alone
Summary of the method: as §1

K. pneumoniae 160143 = experiment: MIC of compounds alone, broth microdilution; conditions: Klebsiella pneumoniae, 160143, read-out: MIC compounds of the invention alone
Summary of the method: as §1

K. pneumoniae 200047 = experiment: MIC of compounds alone, broth microdilution; conditions: Klebsiella pneumoniae, 200047, read-out: MIC compounds of the invention alone
Summary of the method: as §1

K. pneumoniae UFR24 = experiment: MIC of compounds alone, broth microdilution; conditions: Klebsiella pneumoniae, UFR24, read-out: MIC compounds of the invention alone
Summary of the method: as §1

K. pneumoniae UFR68 = experiment: MIC of compounds alone, broth microdilution; conditions: Klebsiella pneumoniae, UFR68, read-out: MIC compounds of the invention alone
Summary of the method: as §1

K. pneumoniae UFR77 = experiment: MIC of compounds alone, broth microdilution; conditions: Klebsiella pneumoniae; strain UFR77 (CMY-2); read-out: MIC compounds of the invention alone
Summary of the method: as §1

P. aeruginosa UFR35 = experiment: MIC of compounds alone, broth microdilution; conditions: Pseudomonas aeruginosa; strain UFR35 (OXA-23); read-out: MIC compounds of the invention alone
Summary of the method: as §1

P. aeruginosa UFR47 [4] = experiment: MIC of compounds alone, broth microdilution; conditions: Pseudomonas aeruginosa; strain UFR47 (VIM-1); read-out: MIC compounds of the invention alone
Summary of the method: as §1

P. aeruginosa UFR48 = experiment: MIC of compounds alone, broth microdilution; conditions: Pseudomonas aeruginosa; strain UFR48 (VIM-2); read-out: MIC compounds of the invention alone
Summary of the method: as §1

P. aeruginosa UFR59 [5] = experiment: MIC of compounds alone, broth microdilution; conditions: Pseudomonas aeruginosa; strain UFR59 (IMP-29); read-out: MIC compounds of the invention alone
Summary of the method: as §1

P. aeruginosa UFR90 = experiment: MIC of compounds alone, broth microdilution; conditions: Pseudomonas aeruginosa, UFR90, read-out: MIC compounds of the invention alone
Summary of the method: as §1

P. aeruginosa UFR92 = experiment: MIC of compounds alone, broth microdilution; conditions: Pseudomonas aeruginosa, UFR92, read-out: MIC compounds of the invention alone
Summary of the method: as §1

P. aeruginosa UFR93 [6] = experiment: MIC of compounds alone, broth microdilution; conditions: Pseudomonas aeruginosa, UFR93, read-out: MIC compounds of the invention alone
Summary of the method: as §1

E. cloacae UFR38 [7] = experiment: MIC of ceftazidime alone and in combination with compounds (synergy), broth microdilution; conditions: MIC of ceftazidime with compound fixed at 4 μg/mL; strain UFR38 (CTX-M-15, NDM-1)
C. murliniae 210102 [8] = experiment: as above; conditions: MIC of ceftazidime with compound fixed at 4 μg/mL; strain 210102 (VIM-4)
E. coli UFR52 [9] = experiment: as above; conditions: MIC of ceftazidime with compound fixed at 4 μg/mL; strain UFR52 (TEM-1, SHV-12, IMP-8)
P. aeruginosa UFR93 [10] = experiment: as above; conditions: MIC of ceftazidime with compound fixed at 4 μg/mL; strain UFR93 (derepressed AmpC, OprD−, MexAB+, MexXY+)
P. aeruginosa UFR47 [11] = experiment: as above; conditions: MIC of ceftazidime with compound fixed at 4 μg/mL; strain UFR47 (VIM-1)
P. aeruginosa UFR59 [12] = experiment: as above; conditions: MIC of ceftazidime with compound fixed at 4 μg/mL; strain UFR59 (IMP-29)

SMILES | MIC (C. murliniae 210102 [1]) [µg/mL] | MIC (E. cloacae 260508) [µg/mL] | MIC (E. cloacae UFR38 [2]) [µg/mL] | MIC (E. cloacae UFR70) [µg/mL] | MIC (E. cloacae UFR85) [µg/mL] | MIC (E. coli UFR18) [µg/mL] | MIC (E. coli UFR32) [µg/mL] | MIC (E. coli UFR52 [3]) [µg/mL] | MIC (E. coli UFR61O) [µg/mL] | MIC (E. coli UFR74) [µg/mL] | MIC (K. oxytoca UFR21) [µg/mL] | MIC (K. pneumoniae 160143) [µg/mL] | MIC (K. pneumoniae 200047) [µg/mL] | MIC (K. pneumoniae UFR24) [µg/mL] | MIC (K. pneumoniae UFR68) [µg/mL] | MIC (K. pneumoniae UFR77) [µg/mL] | MIC (P. aeruginosa UFR35) [µg/mL] | MIC (P. aeruginosa UFR47 [4]) [µg/mL] | MIC (P. aeruginosa UFR48) [µg/mL] | MIC (P. aeruginosa UFR59 [5]) [µg/mL] | also measured
NC[C@@H]1CC(=NOCC(N)=O)[C@@H]2CN1C(=O)N2OS(=O)(=O)O (mixture of isomers) [Example 5, sodium and 2,2,2-trifluroacetate [(2S,5S)-4-(2-amino-2-oxo-ethoxy)imino-2-(azaniumylmethyl)-7-oxo-1,6-diazabicyclo[3.2.1]octan-6-yl] sulfate] | > 32 | 32 | 0.125 | > 32 | > 32 | 0.25 | 1 | 8 | 0.5 | > 32 | > 32 | > 32 | > 32 | > 32 | > 32 | > 32 | 1 | 2 | 2 | 4 | MIC (P. aeruginosa UFR90): 1 µg/mL; MIC (P. aeruginosa UFR92): 2 µg/mL; MIC (P. aeruginosa UFR93 [6]): 4 µg/mL; MIC, combination of CAZ and compounds of the invention at 4 μg/mL (E. cloacae UFR38 [7]): <0.25 µg/mL; MIC, combination of CAZ and compounds of the invention at 4 μg/mL (C. murliniae 210102 [8]): 1 µg/mL; MIC, combination of CAZ and compounds of the invention at 4 μg/mL (E. coli UFR52 [9]): ≤0.25 µg/mL; MIC, combination of CAZ and compounds of the invention at 4 μg/mL (P. aeruginosa UFR93 [10]): <0.25 µg/mL; MIC, combination of CAZ and compounds of the invention at 4 μg/mL (P. aeruginosa UFR47 [11]): <0.25 µg/mL; MIC, combination of CAZ and compounds of the invention at 4 μg/mL (P. aeruginosa UFR59 [12]): <0.25 µg/mL
NC[C@@H]1CC(=O)[C@@H]2CN1C(=O)N2OS(=O)(=O)O [Example 6, 2,2,2-trifluroacetate and sodium [(2S,5S)-2-(azaniumylmethyl)-4,7-dioxo-1,6-diazabicyclo[3.2.1]octan-6-yl] sulfate] | > 32 | > 32 | 0.5 | > 32 | > 32 | 1 | 1 | 2 | 4 | > 32 | > 32 | > 32 | > 32 | > 32 | > 32 | > 32 | 4 | 4 | 8 | 16 | MIC (P. aeruginosa UFR90): 4 µg/mL; MIC (P. aeruginosa UFR92): 4 µg/mL; MIC (P. aeruginosa UFR93 [6]): 8 µg/mL; MIC, combination of CAZ and compounds of the invention at 4 μg/mL (E. cloacae UFR38 [7]): <0.25 µg/mL; MIC, combination of CAZ and compounds of the invention at 4 μg/mL (C. murliniae 210102 [8]): 4 µg/mL; MIC, combination of CAZ and compounds of the invention at 4 μg/mL (E. coli UFR52 [9]): <0.25 µg/mL; MIC, combination of CAZ and compounds of the invention at 4 μg/mL (P. aeruginosa UFR93 [10]): 0.5 µg/mL; MIC, combination of CAZ and compounds of the invention at 4 μg/mL (P. aeruginosa UFR47 [11]): ≤0.25 µg/mL; MIC, combination of CAZ and compounds of the invention at 4 μg/mL (P. aeruginosa UFR59 [12]): ≤0.25 µg/mL
